Measured values taken from the NIST ThermoML archive (doi:10.1016/j.jct.2009.05.006).
Numbers after ± are expanded uncertainties.

Tests used:
[1] = xn = mol fraction of the nth substance listed; settings: 298.15 K, 101 kPa, Liquid, Vibrating tube method
[2] = excess molar enthalpy (molar enthalpy of mixing); xn = mol fraction of the nth substance listed; settings: 298.15 K, 101 kPa, Liquid, Calvet calorimetry

## CCCCOC(=O)CCC [butyl butanoate] + BrCCCCCCBr
[1]; x1 = 0.0615
  mass density: 1551.3 ± 0.73 kg/m3
[1]; x1 = 0.114
  mass density: 1509.95 ± 0.69 kg/m3
[1]; x1 = 0.1733
  mass density: 1463.7 ± 0.64 kg/m3
[1]; x1 = 0.2207
  mass density: 1427.05 ± 0.61 kg/m3
[1]; x1 = 0.2782
  mass density: 1383.1 ± 0.56 kg/m3
[1]; x1 = 0.3299
  mass density: 1343.86 ± 0.53 kg/m3
[1]; x1 = 0.3955
  mass density: 1294.64 ± 0.48 kg/m3
[1]; x1 = 0.4505
  mass density: 1253.75 ± 0.45 kg/m3
[1]; x1 = 0.5089
  mass density: 1210.69 ± 0.41 kg/m3
[1]; x1 = 0.5674
  mass density: 1168 ± 0.37 kg/m3
[1]; x1 = 0.6293
  mass density: 1123.3 ± 0.34 kg/m3
[1]; x1 = 0.68
  mass density: 1087.08 ± 0.31 kg/m3
[1]; x1 = 0.7477
  mass density: 1039.01 ± 0.27 kg/m3
[1]; x1 = 0.8082
  mass density: 996.64 ± 0.24 kg/m3
[1]; x1 = 0.8735
  mass density: 951.23 ± 0.24 kg/m3
[1]; x1 = 0.9358
  mass density: 908.5 ± 0.24 kg/m3
[2]; x1 = 0.0751
  excess molar enthalpy: 0.00502 ± 0.000239 kcal/mol
[2]; x1 = 0.1669
  excess molar enthalpy: 0.00693 ± 0.000239 kcal/mol
[2]; x1 = 0.2609
  excess molar enthalpy: 0.00669 ± 0.000239 kcal/mol
[2]; x1 = 0.3471
  excess molar enthalpy: 0.00454 ± 0.000239 kcal/mol
[2]; x1 = 0.418
  excess molar enthalpy: 0.000478 ± 0.000239 kcal/mol
[2]; x1 = 0.4834
  excess molar enthalpy: -0.00406 ± 0.000239 kcal/mol
[2]; x1 = 0.5223
  excess molar enthalpy: -0.00789 ± 0.000239 kcal/mol
[2]; x1 = 0.5361
  excess molar enthalpy: -0.0086 ± 0.000239 kcal/mol
[2]; x1 = 0.5892
  excess molar enthalpy: -0.0105 ± 0.000239 kcal/mol
[2]; x1 = 0.6544
  excess molar enthalpy: -0.0115 ± 0.000478 kcal/mol
[2]; x1 = 0.7475
  excess molar enthalpy: -0.0115 ± 0.000478 kcal/mol
[2]; x1 = 0.8287
  excess molar enthalpy: -0.00956 ± 0.000239 kcal/mol
[2]; x1 = 0.9253
  excess molar enthalpy: -0.00502 ± 0.000239 kcal/mol

## BrCCBr [1,2-dibromoethane] + CCCCOC(=O)CC
[2]; x2 = 0.0417
  excess molar enthalpy: 0.00526 ± 0.000239 kcal/mol
[2]; x2 = 0.0966
  excess molar enthalpy: 0.00741 ± 0.000239 kcal/mol
[2]; x2 = 0.1618
  excess molar enthalpy: 0.00621 ± 0.000239 kcal/mol
[2]; x2 = 0.2302
  excess molar enthalpy: 0.00191 ± 0.000239 kcal/mol
[2]; x2 = 0.2936
  excess molar enthalpy: -0.00478 ± 0.000239 kcal/mol
[2]; x2 = 0.3529
  excess molar enthalpy: -0.012 ± 0.000478 kcal/mol
[2]; x2 = 0.4091
  excess molar enthalpy: -0.0179 ± 0.000478 kcal/mol
[2]; x2 = 0.4511
  excess molar enthalpy: -0.022 ± 0.000478 kcal/mol
[2]; x2 = 0.4917
  excess molar enthalpy: -0.0241 ± 0.000717 kcal/mol
[2]; x2 = 0.5694
  excess molar enthalpy: -0.0265 ± 0.000717 kcal/mol
[2]; x2 = 0.6594
  excess molar enthalpy: -0.0263 ± 0.000717 kcal/mol
[2]; x2 = 0.7605
  excess molar enthalpy: -0.0229 ± 0.000478 kcal/mol
[2]; x2 = 0.8773
  excess molar enthalpy: -0.0151 ± 0.000478 kcal/mol

## BrCCCCBr [1,4-dibromobutane] + CCCCOC(C)=O
[1]; x1 = 0.06
  mass density: 1754.15 ± 0.94 kg/m3
[1]; x1 = 0.1131
  mass density: 1699.34 ± 0.88 kg/m3
[1]; x1 = 0.1633
  mass density: 1648.18 ± 0.83 kg/m3
[1]; x1 = 0.2229
  mass density: 1588.24 ± 0.77 kg/m3
[1]; x1 = 0.2748
  mass density: 1536.73 ± 0.72 kg/m3
[1]; x1 = 0.3886
  mass density: 1426 ± 0.61 kg/m3
[1]; x1 = 0.4426
  mass density: 1374.38 ± 0.56 kg/m3
[1]; x1 = 0.5
  mass density: 1320.28 ± 0.51 kg/m3
[1]; x1 = 0.6216
  mass density: 1207.87 ± 0.41 kg/m3
[1]; x1 = 0.6806
  mass density: 1154.38 ± 0.37 kg/m3
[1]; x1 = 0.8076
  mass density: 1041.44 ± 0.28 kg/m3
[1]; x1 = 0.8633
  mass density: 992.97 ± 0.25 kg/m3
[1]; x1 = 0.9298
  mass density: 935.67 ± 0.25 kg/m3
[2]; x2 = 0.0576
  excess molar enthalpy: 0.00335 ± 0.000239 kcal/mol
[2]; x2 = 0.135
  excess molar enthalpy: 0.00574 ± 0.000239 kcal/mol
[2]; x2 = 0.2211
  excess molar enthalpy: 0.00621 ± 0.000239 kcal/mol
[2]; x2 = 0.3056
  excess molar enthalpy: 0.00359 ± 0.000239 kcal/mol
[2]; x2 = 0.3729
  excess molar enthalpy: -0.000956 ± 0.000239 kcal/mol
[2]; x2 = 0.4291
  excess molar enthalpy: -0.00621 ± 0.000239 kcal/mol
[2]; x2 = 0.4798
  excess molar enthalpy: -0.0124 ± 0.000478 kcal/mol
[2]; x2 = 0.4866
  excess molar enthalpy: -0.0158 ± 0.000478 kcal/mol
[2]; x2 = 0.5277
  excess molar enthalpy: -0.0186 ± 0.000478 kcal/mol
[2]; x2 = 0.5406
  excess molar enthalpy: -0.021 ± 0.000478 kcal/mol
[2]; x2 = 0.603
  excess molar enthalpy: -0.0234 ± 0.000478 kcal/mol
[2]; x2 = 0.6715
  excess molar enthalpy: -0.0237 ± 0.000478 kcal/mol
[2]; x2 = 0.7464
  excess molar enthalpy: -0.0222 ± 0.000478 kcal/mol
[2]; x2 = 0.8416
  excess molar enthalpy: -0.0155 ± 0.000478 kcal/mol
[2]; x2 = 0.9307
  excess molar enthalpy: -0.00717 ± 0.000239 kcal/mol

## BrCCCCCCBr [1,6-dibromohexane] + CCCCOC(=O)CC
[1]; x2 = 0.0686
  mass density: 1552.3 ± 0.73 kg/m3
[1]; x2 = 0.1212
  mass density: 1514.66 ± 0.69 kg/m3
[1]; x2 = 0.1829
  mass density: 1470.4 ± 0.65 kg/m3
[1]; x2 = 0.2418
  mass density: 1427.98 ± 0.61 kg/m3
[1]; x2 = 0.2995
  mass density: 1386.24 ± 0.57 kg/m3
[1]; x2 = 0.4152
  mass density: 1302.26 ± 0.49 kg/m3
[1]; x2 = 0.4752
  mass density: 1258.56 ± 0.45 kg/m3
[1]; x2 = 0.5954
  mass density: 1170.51 ± 0.38 kg/m3
[1]; x2 = 0.6527
  mass density: 1128.4 ± 0.34 kg/m3
[1]; x2 = 0.7123
  mass density: 1084.48 ± 0.31 kg/m3
[1]; x2 = 0.7652
  mass density: 1045.44 ± 0.28 kg/m3
[1]; x2 = 0.8249
  mass density: 1001.25 ± 0.24 kg/m3
[1]; x2 = 0.8847
  mass density: 956.84 ± 0.24 kg/m3
[1]; x2 = 0.9365
  mass density: 918.31 ± 0.24 kg/m3
[2]; x2 = 0.0731
  excess molar enthalpy: 0.00669 ± 0.000239 kcal/mol
[2]; x2 = 0.1582
  excess molar enthalpy: 0.0117 ± 0.000478 kcal/mol
[2]; x2 = 0.2418
  excess molar enthalpy: 0.0136 ± 0.000478 kcal/mol
[2]; x2 = 0.3151
  excess molar enthalpy: 0.012 ± 0.000478 kcal/mol
[2]; x2 = 0.3861
  excess molar enthalpy: 0.00621 ± 0.000239 kcal/mol
[2]; x2 = 0.4485
  excess molar enthalpy: 0.000239 ± 0.000239 kcal/mol
[2]; x2 = 0.5064
  excess molar enthalpy: -0.00669 ± 0.000239 kcal/mol
[2]; x2 = 0.5318
  excess molar enthalpy: -0.0105 ± 0.000239 kcal/mol
[2]; x2 = 0.5419
  excess molar enthalpy: -0.0108 ± 0.000239 kcal/mol
[2]; x2 = 0.596
  excess molar enthalpy: -0.0143 ± 0.000478 kcal/mol
[2]; x2 = 0.6658
  excess molar enthalpy: 0.016 ± 0.000478 kcal/mol
[2]; x2 = 0.7456
  excess molar enthalpy: 0.0158 ± 0.000478 kcal/mol
[2]; x2 = 0.834
  excess molar enthalpy: 0.0127 ± 0.000478 kcal/mol
[2]; x2 = 0.9306
  excess molar enthalpy: 0.00526 ± 0.000239 kcal/mol

## BrCCCCCBr [1,5-dibromopentane] + CCCCOC(=O)CC
[2]; x2 = 0.0697
  excess molar enthalpy: 0.00741 ± 0.000239 kcal/mol
[2]; x2 = 0.1544
  excess molar enthalpy: 0.012 ± 0.000478 kcal/mol
[2]; x2 = 0.248
  excess molar enthalpy: 0.0124 ± 0.000478 kcal/mol
[2]; x2 = 0.3363
  excess molar enthalpy: 0.00884 ± 0.000239 kcal/mol
[2]; x2 = 0.4134
  excess molar enthalpy: 0.00263 ± 0.000239 kcal/mol
[2]; x2 = 0.4801
  excess molar enthalpy: -0.00526 ± 0.000239 kcal/mol
[2]; x2 = 0.4924
  excess molar enthalpy: -0.00884 ± 0.000239 kcal/mol
[2]; x2 = 0.5371
  excess molar enthalpy: -0.0131 ± 0.000478 kcal/mol
[2]; x2 = 0.5511
  excess molar enthalpy: -0.0165 ± 0.000478 kcal/mol
[2]; x2 = 0.6257
  excess molar enthalpy: -0.0206 ± 0.000478 kcal/mol
[2]; x2 = 0.7153
  excess molar enthalpy: -0.021 ± 0.000478 kcal/mol
[2]; x2 = 0.8183
  excess molar enthalpy: -0.016 ± 0.000478 kcal/mol
[2]; x2 = 0.9151
  excess molar enthalpy: -0.00884 ± 0.000239 kcal/mol
